Results as given in patent US8394952B2 (Vertex Pharmaceuticals Incorporated, priority 2006, dated 2013).

The molecules below were run against Plk1 (Homo sapiens, UniProt P53350) (assay: biochemical).
Chain of Plk1 (P53350 20-338): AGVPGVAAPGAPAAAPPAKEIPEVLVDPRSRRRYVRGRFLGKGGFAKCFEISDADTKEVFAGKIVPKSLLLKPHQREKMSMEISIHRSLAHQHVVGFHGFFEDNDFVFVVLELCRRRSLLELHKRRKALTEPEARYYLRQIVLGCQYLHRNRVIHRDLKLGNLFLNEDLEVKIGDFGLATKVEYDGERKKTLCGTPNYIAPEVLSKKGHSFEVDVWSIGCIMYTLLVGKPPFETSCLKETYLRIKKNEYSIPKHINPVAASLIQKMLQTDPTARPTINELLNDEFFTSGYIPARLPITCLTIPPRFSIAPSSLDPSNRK

CC[C@H]1CN(C2CCCC2)c2nc(Nc3ccc(C(=O)NC4CCN(C)CC4)cc3OC)ncc2N(C)C1=O [Compound I-113, 4-((S)-9-cyclopentyl-7-ethyl-6,7,8,9-tetrahydro-5-methyl-6-oxo-5H-pyrimido[4,5-b][1,4]diazepin-2-ylamino)-3-methoxy-N-(1-methylpiperidin-4-yl)benzamide] and COc1cc(C(=O)NC2CCN(CC3CC3)CC2)ccc1Nc1ncc2c(n1)N(C1CCCC1)CC(C)(C)C(=O)N2C [Compound I-59, 4-(9-cyclopentyl-6,7,8,9-tetrahydro-5,7,7-trimethyl-6-oxo-5H-pyrimido[4,5-b][1,4]diazepin-2-ylamino)-N-(1-(cyclopropylmethyl)piperidin-4-yl)-3-methoxybenzamide] cannot be ordered by Ki: < 10 nM for the first, < 10 nM for the second.

COc1cc(C(=O)Nc2nccs2)ccc1Nc1ncc2c(n1)N(C1CCCC1)CC(C)(C)C(=O)N2C [Compound I-223, 4-(9-cyclopentyl-5,7,7-trimethyl-6-oxo-6,7,8,9-tetrahydro-5H-pyrimido[4,5-b][1,4]diazepin-2-ylamino)-3-methoxy-N-(thiazol-2-yl)benzamide] and COc1cc(C(=O)Nc2ncc(C)s2)ccc1Nc1ncc2c(n1)N(C1CCCC1)CC(C)(C)C(=O)N2C [Compound I-236, 4-(9-cyclopentyl-5,7,7-trimethyl-6-oxo-6,7,8,9-tetrahydro-5H-pyrimido[4,5-b][1,4]diazepin-2-ylamino)-3-methoxy-N-(5-methylthiazol-2-yl)benzamide] cannot be ordered by Ki: < 10 nM for the first, < 10 nM for the second.

First: CNC(=O)c1ccc(Nc2ncc3c(n2)N(C(C)C)CC(C)(C)C(=O)N3C)c(OC)c1 [Compound I-35, 4-(6,7,8,9-tetrahydro-9-isopropyl-5,7,7-trimethyl-6-oxo-5H-pyrimido[4,5-b][1,4]diazepin-2-ylamino)-3-methoxy-N-methylbenzamide]
Second: CNC(=O)c1ccc(Nc2ncc3c(n2)N(CC2CCC2)CC(C)(C)C(=O)N3C)c(OC)c1 [Compound I-123, 4-(9-(cyclobutylmethyl)-6,7,8,9-tetrahydro-5,7,7-trimethyl-6-oxo-5H-pyrimido[4,5-b][1,4]diazepin-2-ylamino)-3-methoxy-N-methylbenzamide]
The Ki of the first is higher: 10 to 100 nM for the first, < 10 nM for the second.

First: CNC(=O)c1ccc(Nc2ncc3c(n2)N([C@@H]2CCCN(C)C2)CC(C)(C)C(=O)N3C)c(OC)c1 [Compound I-96, 4-(6,7,8,9-tetrahydro-5,7,7-trimethyl-9-((R)-1-methylpiperidine-3-yl)-6-oxo-5H-pyrimido[4,5-b][1,4]diazepin-2-ylamino)-3-methoxy-N-methylbenzamide]
Second: CNC(=O)c1ccc(Nc2ncc3c(n2)N([C@@H]2CCN(C)C2)CC(C)(C)C(=O)N3C)c(OC)c1 [Compound I-20, 4-(6,7,8,9-tetrahydro-5,7,7-trimethyl-9-((R)-1-methylpyrrolidin-3-yl)-6-oxo-5H-pyrimido[4,5-b][1,4]diazepin-2-ylamino)-3-methoxy-N-methylbenzamide]
The Ki of the first is lower: < 10 nM for the first, 10 to 100 nM for the second. The first binds more tightly here.

CNC(=O)c1cccc(Nc2ncc3c(n2)N(C2CCCC2)CC(C)(C)C(=O)N3C)c1 [Compound I-46, 3-(9-cyclopentyl-6,7,8,9-tetrahydro-5,7,7-trimethyl-6-oxo-5H-pyrimido[4,5-b][1,4]diazepin-2-ylamino)-N-methylbenzamide] and CN1C(=O)C(C)(C)CN(C2CCCC2)c2nc(Nc3cccc(C(=O)NC4CNC4)c3)ncc21 [Compound I-156, 3-(9-cyclopentyl-6,7,8,9-tetrahydro-5,7,7-trimethyl-6-oxo-5H-pyrimido[4,5-b][1,4]diazepin-2-ylamino)-N-(azetidin-3-yl)benzamide] fall in the same range of Ki: 10 to 100 nM for the first, 10 to 100 nM for the second.

COc1cc(C(=O)NCc2ccncc2)ccc1Nc1ncc2c(n1)N(C1CCCC1)CC(C)(C)C(=O)N2C [Compound I-212, 4-(9-cyclopentyl-5,7,7-trimethyl-6-oxo-6,7,8,9-tetrahydro-5H-pyrimido[4,5-b][1,4]diazepin-2-ylamino)-3-methoxy-N-(pyridin-4-ylmethyl)benzamide] and CCNC(=O)c1ccc(Nc2ncc3c(n2)N(C2CCCC2)CC(C)(C)C(=O)N3C)c(OC)c1 [Compound I-219, 4-(9-cyclopentyl-5,7,7-trimethyl-6-oxo-6,7,8,9-tetrahydro-5H-pyrimido[4,5-b][1,4]diazepin-2-ylamino)-N-ethyl-3-methoxybenzamide] cannot be ordered by Ki: < 10 nM for the first, < 10 nM for the second.

First: COc1cc(C(=O)N2CCN(C(=O)OC(C)(C)C)CC2)ccc1Nc1ncc2c(n1)N(C1CCCC1)CCC(=O)N2C [Compound I-7, 4-(9-cyclopentyl-6,7,8,9-tetrahydro-5-methyl-6-oxo-5H-pyrimido[4,5-b][1,4]diazepin-2-ylamino)-3-methoxyphenyl-(4-tert-butoxycarbonypiperazin-1-yl)methanone]
Second: COc1cc(C(=O)NC2CC2)ccc1Nc1ncc2c(n1)N(C1CCCC1)CC(C)(C)C(=O)N2C [Compound I-93, 4-(9-cyclopentyl-6,7,8,9-tetrahydro-5,7,7-trimethyl-6-oxo-5H-pyrimido[4,5-b][1,4]diazepin-2-ylamino)-N-cyclopropyl-3-methoxybenzamide]
The Ki of the first is higher: 10 to 100 nM for the first, < 10 nM for the second. The second binds more tightly here.

COc1cc(C(=O)NCCOCCO)ccc1Nc1ncc2c(n1)N(C1CCCC1)CC(C)(C)C(=O)N2C [Compound I-237, 4-(9-cyclopentyl-5,7,7-trimethyl-6-oxo-6,7,8,9-tetrahydro-5H-pyrimido[4,5-b][1,4]diazepin-2-ylamino)-N-(2-(2-hydroxyethoxy)ethyl)-3-methoxybenzamide] and COc1cc(C(=O)NCCCO)ccc1Nc1ncc2c(n1)N(C1CCCC1)CC(C)(C)C(=O)N2C [Compound I-241] cannot be ordered by Ki: < 10 nM for the first, < 10 nM for the second.

COc1cc(C(=O)Nc2ccncc2C(F)(F)F)ccc1Nc1ncc2c(n1)N(C1CCCC1)CC(C)(C)C(=O)N2C [Compound I-234] and COc1cc(C(=O)NCC(F)(F)F)ccc1Nc1ncc2c(n1)N(C1CCCC1)CC(C)(C)C(=O)N2C [Compound I-105] cannot be ordered by Ki: < 10 nM for the first, < 10 nM for the second.

COc1cc(C(=O)NCC2CCCC2)ccc1Nc1ncc2c(n1)N(C1CCCC1)CC(C)(C)C(=O)N2C [Compound I-230, 4-(9-cyclopentyl-5,7,7-trimethyl-6-oxo-6,7,8,9-tetrahydro-5H-pyrimido[4,5-b][1,4]diazepin-2-ylamino)-N-(cyclopentylmethyl)-3-methoxybenzamide] and COCCNC(=O)c1ccc(Nc2ncc3c(n2)N(C2CCCC2)CC(C)(C)C(=O)N3C)c(OC)c1 [Compound I-197, 4-(9-cyclopentyl-5,7,7-trimethyl-6-oxo-6,7,8,9-tetrahydro-5H-pyrimido[4,5-b][1,4]diazepin-2-ylamino)-3-methoxy-N-(2-methoxyethyl)benzamide] cannot be ordered by Ki: < 10 nM for the first, < 10 nM for the second.

CC(=O)Nc1cc(Nc2ncc3c(n2)N(C2CCCC2)CC(C)(C)C(=O)N3C)ccc1C [Compound I-162, N-(5-(9-cyclopentyl-6,7,8,9-tetrahydro-5,7,7-trimethyl-6-oxo-5H-pyrimido[4,5-b][1,4]diazepin-2-ylamino)-2-methylphenyl)acetamide] and CN1C(=O)C(C)(C)CN(C2CCCC2)c2nc(Nc3ccc4[nH]ncc4c3)ncc21 [Compound I-114, 2-(1H-indazo-5-ylamino)-9-cyclopentyl-8,9-dihydro-5,7,7-trimethyl-5H-pyrimido[4,5-b][1,4]diazepin-6(7H)-one] fall in the same range of Ki: 10 to 100 nM for the first, 10 to 100 nM for the second.

COc1cc(C(=O)NCCN2CC[C@H](F)C2)ccc1Nc1ncc2c(n1)N(C1CCCC1)CC(C)(C)C(=O)N2C [Compound I-37, 4-(9-cyclopentyl-6,7,8,9-tetrahydro-5,7,7-trimethyl-6-oxo-5H-pyrimido[4,5-b][1,4]diazepin-2-ylamino)-N-(2-((S)-3-fluoropyrrolidin-1-yl)ethyl)-3-methoxybenzamide] and COc1cc(C(=O)NCCN2CCOCC2)ccc1Nc1ncc2c(n1)N(C1CCCC1)CC(C)(C)C(=O)N2C [Compound I-33, 4-(9-cyclopentyl-6,7,8,9-tetrahydro-5,7,7-trimethyl-6-oxo-5H-pyrimido[4,5-b][1,4]diazepin-2-ylamino)-3-methoxy-N-(2-morpholinoethyl)benzamide] cannot be ordered by Ki: < 10 nM for the first, < 10 nM for the second.

COc1cc(C(=O)NC(C)C)ccc1Nc1ncc2c(n1)N(C1CCCC1)CC(C)(C)C(=O)N2C [Compound I-238, 4-(9-cyclopentyl-5,7,7-trimethyl-6-oxo-6,7,8,9-tetrahydro-5H-pyrimido[4,5-b][1,4]diazepin-2-ylamino)-N-isopropyl-3-methoxybenzamide] and COc1cc(C(=O)N[C@@H](C)CO)ccc1Nc1ncc2c(n1)N(C1CCCC1)CC(C)(C)C(=O)N2C [Compound I-265] cannot be ordered by Ki: < 10 nM for the first, < 10 nM for the second.

Compared with COc1cc(C(=O)NC2CCOCC2)ccc1Nc1ncc2c(n1)N(C1CC(F)(F)C1)CC(C)(C)C(=O)N2C [Compound I-171, 4-(9-(3,3-difluorocyclobutyl)-6,7,8,9-tetrahydro-5,7,7-trimethyl-6-oxo-5H-pyrimido[4,5-b][1,4]diazepin-2-ylamino)-N-(tetrahydro-2H-pyran-4-yl)-3-methoxybenzamide], CN1C(=O)C(C)(C)CN(C2CCCC2)c2nc(Nc3cccc(C(=O)NC4CCOCC4)c3)ncc21 [Compound I-141, 3-(9-Cyclopentyl-6,7,8,9-tetrahydro-5,7,7-trimethyl-6-oxo-5H-pyrimido[4,5-b][1,4]diazepin-2-ylamino)-N-(tetrahydro-2H-pyran-4-yl)benzamide] is higher in Ki: < 10 nM for the first, 10 to 100 nM for the second.

COc1cc(C(=O)N[C@@H]2CCc3ccccc32)ccc1Nc1ncc2c(n1)N(C1CCCC1)CC(C)(C)C(=O)N2C [Compound I-209, (R)-4-(9-cyclopentyl-5,7,7-trimethyl-6-oxo-6,7,8,9-tetrahydro-5H-pyrimido[4,5-b][1,4]diazepin-2-ylamino)-N-(2,3-dihydro-1H-inden-1yl)-3-methoxy-benzamide] and COc1cc(C(=O)NCCC(C)O)ccc1Nc1ncc2c(n1)N(C1CCCC1)CC(C)(C)C(=O)N2C (stereo not shown) [Compound I-243, 4-(9-cyclopentyl-5,7,7-trimethyl-6-oxo-6,7,8,9-tetrahydro-5H-pyrimido[4,5-b][1,4]diazepin-2-ylamino)-N-(3-hydroxybutyl)-3-methoxybenzamide] cannot be ordered by Ki: < 10 nM for the first, < 10 nM for the second.

With COc1cc(-c2ncc[nH]2)ccc1Nc1ncc2c(n1)N(C1CCCC1)CC(C)(C)C(=O)N2C [Compound I-250, 2-(4-(1H-imidazole-2-yl)-2-methoxyphenylamino)-9-cyclopentyl-5,7,7-trimethyl-8,9-dihydro-5H-pyrimido[4,5-b][1,4]diazepin-6(7H)-one] the Ki was < 10 nM.
